This note sets out measurements from ChEMBL document CHEMBL1137123, “Himbacine analogs as muscarinic receptor antagonists--effects of tether and heterocyclic variations” (Bioorg Med Chem Lett, 2004).

pKi: −log10 of the molar value.

Test [1] concerns the target T1, Muscarinic acetylcholine receptor M1 (Homo sapiens, UniProt P11229).
T1 sequence (P11229 whole entry): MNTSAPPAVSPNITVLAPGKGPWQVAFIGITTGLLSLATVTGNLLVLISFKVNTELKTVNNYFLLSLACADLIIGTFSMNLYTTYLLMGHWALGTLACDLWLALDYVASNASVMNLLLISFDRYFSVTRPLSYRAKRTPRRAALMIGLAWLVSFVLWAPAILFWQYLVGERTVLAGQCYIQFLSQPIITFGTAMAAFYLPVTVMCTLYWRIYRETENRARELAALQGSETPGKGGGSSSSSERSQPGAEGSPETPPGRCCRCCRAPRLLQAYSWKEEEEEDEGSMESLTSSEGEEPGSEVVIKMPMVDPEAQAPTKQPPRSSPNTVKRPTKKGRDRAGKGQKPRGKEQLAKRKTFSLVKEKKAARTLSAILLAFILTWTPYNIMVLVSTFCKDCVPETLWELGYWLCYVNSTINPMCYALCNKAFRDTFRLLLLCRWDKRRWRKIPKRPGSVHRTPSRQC
Description: In vitro inhibitory activity against cloned human M1 muscarinic receptor.

In test [2] the target is T2, Muscarinic acetylcholine receptor M2 (Homo sapiens, UniProt P08172).
T2 sequence (P08172 whole entry): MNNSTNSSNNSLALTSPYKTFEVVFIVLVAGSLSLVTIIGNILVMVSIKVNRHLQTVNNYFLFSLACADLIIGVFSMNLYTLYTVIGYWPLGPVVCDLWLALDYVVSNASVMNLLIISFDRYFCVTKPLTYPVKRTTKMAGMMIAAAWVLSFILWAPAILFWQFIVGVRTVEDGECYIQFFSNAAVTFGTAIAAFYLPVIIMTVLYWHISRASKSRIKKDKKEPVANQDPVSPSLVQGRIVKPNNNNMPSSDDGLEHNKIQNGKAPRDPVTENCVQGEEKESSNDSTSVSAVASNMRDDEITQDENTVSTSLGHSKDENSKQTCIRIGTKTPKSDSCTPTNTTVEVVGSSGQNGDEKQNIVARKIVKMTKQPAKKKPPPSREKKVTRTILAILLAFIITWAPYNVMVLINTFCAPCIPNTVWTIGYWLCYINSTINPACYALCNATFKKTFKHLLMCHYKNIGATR
Description: In vitro inhibitory activity against cloned human M2 muscarinic receptor.

As to `C[C@@H]1OC(=O)[C@H]2C[C@H]3CCCC[C@@H]3/C(=C/C[C@H]3CCC[C@H](C)N3C)[C@@H]12`, the pKi is 7.18 in test [1] and 7.88 in test [2].

For `C[C@@H]1OC(=O)[C@H]2C[C@H]3CCCC[C@@H]3[C@@H](/C=C/[C@@H]3CCC[C@H](C)N3)[C@@H]12`, the pKi in test [1] and in test [2] was under 5.85 throughout.

Consider `C[C@@H]1OC(=O)[C@H]2C=C3CCCC[C@@H]3/C(=C/CC3CCC(C)(C)N3C)[C@@H]12` (some centres not stated), for which the pKi was 6.75 in test [1] and 7.17 in test [2].

Regarding `C[C@@H]1OC(=O)[C@H]2C[C@H]3CCCC[C@@H]3[C@@H](/C=C/[C@H]3CCC[C@H](C)N3C)[C@@H]12` [HIMBACINE], the negative-log Ki (pKi) is 7.32 in test [1] and 8.35 in test [2].

Turning to `C[C@@H]1OC(=O)[C@H]2C[C@H]3CCCC[C@@H]3/C(=C/CC3CCC(C)(C)N3C)[C@@H]12` (some centres not stated), the pKi in test [1] is 6.38; in test [2] it was 7.37.

As to `C[C@@H]1OC(=O)[C@H]2C[C@H]3CCCC[C@@H]3[C@@H](/C(O)=C/[C@H]3CCC[C@H](C)N3C)[C@@H]12`, the pKi in test [1] is 5.80; in test [2], 6.69.

Regarding `CCN1C(CCC2[C@H]3[C@H](C)OC(=O)[C@H]3C[C@H]3CCCC[C@H]23)CCC1(C)C` (some centres not stated), the pKi in test [1] is 6.09; in test [2], 6.35.

As for `C[C@@H]1OC(=O)[C@H]2C[C@H]3CCCC[C@@H]3[C@@H](CC[C@H]3CCC[C@H](C)N3)[C@@H]12`, the pKi in test [1] was 7.17; in test [2], 7.80.

Regarding `C[C@@H]1OC(=O)[C@H]2C=C3CCCC[C@@H]3[C@@H]([C@@H]3CC4CCC(C)(C)[N+]4(C)O3)[C@@H]12` (some centres not stated), the pKi in test [1] is 6.10; in test [2] it was 6.74.

Turning to `C[C@@H]1OC(=O)[C@H]2C=C3CCCC[C@@H]3[C@@H]([C@@H]3CC4CCC(C)(C)N4O3)[C@@H]12` (some centres not stated), the pKi in test [1] and in test [2] was under 5.85 each time.

Consider `C[C@@H]1OC(=O)[C@H]2C=C3CCCC[C@@H]3/C(=C/CC3CCC(C)(C)[N+]3(C)C)[C@@H]12` (some centres not stated), for which the pKi in test [1] is 6.35; in test [2], 6.24.

In the case of `C[C@@H]1OC(=O)[C@H]2C[C@H]3CCCC[C@@H]3[C@@H](/C=C/[C@@H]3CCC[C@H](C)N3C)[C@@H]12`, the pKi in test [1] and in test [2] was under 5.85 each time.

Take `C[C@@H]1OC(=O)[C@H]2C[C@H]3CCCC[C@@H]3[C@@H](CC[C@H]3CCC[C@H](C)N3C)[C@@H]12`: the pKi in test [1] is 7.49; in test [2], 8.37.

On to `CCN1C(C/C=C2\[C@H]3[C@H](C)OC(=O)[C@H]3C=C3CCCC[C@@H]32)CCC1(C)C` (some centres not stated), for which the results for the pKi in test [1] and in test [2] were 6.19 and under 5.85, respectively.

As for `C[C@@H]1OC(=O)[C@H]2C[C@H]3CCCC[C@@H]3C(CCC3CCC(C)(C)N3C)[C@@H]12` (some centres not stated), the pKi was 6.91 in test [1] and 7.91 in test [2].

Consider `C[C@@H]1OC(=O)[C@H]2C[C@H]3CCCC[C@@H]3[C@@H]([C@@H](O)C[C@H]3CCC(C)(C)N3C)[C@@H]12`, for which the pKi in test [1] and in test [2] was under 5.85 in each case.
